Where two headings read alike, the source gives them in different places.
System: respiratory epithelial cells
Settings: IL-13 vs no stimulation

With “IL-13: human IL-13 (Peprotech, Inc.) added to the medium at 50 ng/mL to stimulate respiratory epithelial cells” the “BENE (33331_at) expression change” value (lot 1 Day 3 IMM) was −2.8, the “CRA (1230_g_at) expression change” value (lot 1 Day 3 IMM) was −2.3 and the “CTSL2 (40717_at) expression change” value (lot 1 Day 3 IMM) was −2.2. For the same substance, the “DUSP1 (1005_at) expression change” value (lot 1 Day 3 IMM) was −2.4, the “IGFBP3 (37319_at) expression change” value (lot 1 Day 3 IMM) was −2 and the “IGFBP6 (1736_at) expression change” value (lot 1 Day 3 IMM) was −2.8. For the same substance, the “MMP9 (31859_at) expression change” value (lot 1 Day 3 IMM) was −7.3, the “MMP10 (1006_at) expression change” value (lot 1 Day 3 IMM) was −3.4 and the “MSMB (32149_at) expression change” value (lot 1 Day 3 IMM) was −3.7. For the same substance, the “NDRG1 (36933_at) expression change” value (lot 1 Day 3 IMM) was −2.3, the “NOTCH3 (38750_at) expression change” value (lot 1 Day 3 IMM) was −3.5 and the “PFTK1 (36502_at) expression change” value (lot 1 Day 3 IMM) was −2.6. For the same substance, the “PSCA (33792_at) expression change” value (lot 1 Day 3 IMM) was −3.9, the “SERPINA3 (33825_at) expression change” value (lot 1 Day 3 IMM) was −3.8 and the “SERPINE1 (672_at) expression change” value (lot 1 Day 3 IMM) was −7.7. The “SERPINE1 (38125_at) expression change” value (lot 1 Day 3 IMM) was −4.2, the “TSPAN-5 (40990_at) expression change” value (lot 1 Day 3 IMM) was −2.8 and the “AGR2 (38827_at) expression change” value (lot 1 Day 7 AI) was −2.7. The “AKR1B10 (37482_at) expression change” value (lot 1 Day 7 AI) was −7.5, the “AKR1C3 (37399_at) expression change” value (lot 1 Day 7 AI) was −4 and the “ANXA10 (32349_at) expression change” value (lot 1 Day 7 AI) was −2.5. The “APM2 (32527_at) expression change” value (lot 1 Day 7 AI) was −3.8, the “AREG (34898_at) expression change” value (lot 1 Day 7 AI) was −4.8 and the “BCAS1 (37821_at) expression change” value (lot 1 Day 7 AI) was −3.7. The “BENE (33331_at) expression change” value (lot 1 Day 7 AI) was −7.3, the “C4.4A (41641_at) expression change” value (lot 1 Day 7 AI) was −2.5 and the “CRA (1230_g_at) expression change” value (lot 1 Day 7 AI) was −2. The “DEFB2 (32464_at) expression change” value (lot 1 Day 7 AI) was −4.3, the “ECM1 (37600_at) expression change” value (lot 1 Day 7 AI) was −4.7 and the “EPHA1 (1108_s_at) expression change” value (lot 1 Day 7 AI) was −3.2. For the same substance, the “ETFB (36881_at) expression change” value (lot 1 Day 7 AI) was −2, the “FABP5 (39799_at) expression change” value (lot 1 Day 7 AI) was −4.2 and the “GABRE (34280_at) expression change” value (lot 1 Day 7 AI) was −2. The “GPNMB (38379_at) expression change” value (lot 1 Day 7 AI) was 3.6, the “HLA-DPB1 (38095_i_at) expression change” value (lot 1 Day 7 AI) was −4.4 and the “HLA-DPB1 (38096_f_at) expression change” value (lot 1 Day 7 AI) was −2.6. For the same substance, the “IGFBP3 (1586_at) expression change” value (lot 1 Day 7 AI) was −2.4, the “IGFBP3 (37319_at) expression change” value (lot 1 Day 7 AI) was −2.7 and the “IGFBP6 (1736_at) expression change” value (lot 1 Day 7 AI) was −7.7. The “IMPA2 (36496_at) expression change” value (lot 1 Day 7 AI) was −2, the “MMP9 (31859_at) expression change” value (lot 1 Day 7 AI) was −10.9 and the “MN1 (37283_at) expression change” value (lot 1 Day 7 AI) was −3.2. The “MSMB (32149_at) expression change” value (lot 1 Day 7 AI) was −11.7, the “NCALD (38803_at) expression change” value (lot 1 Day 7 AI) was −2.8 and the “NDRG1 (36933_at) expression change” value (lot 1 Day 7 AI) was −3.6. The “NOTCH3 (38750_at) expression change” value (lot 1 Day 7 AI) was −4.6, the “PSCA (33792_at) expression change” value (lot 1 Day 7 AI) was −5.8 and the “PTK2B (33804_at) expression change” value (lot 1 Day 7 AI) was −6.4. For the same substance, the “PTPRZ1 (1364_at) expression change” value (lot 1 Day 7 AI) was −3.7, the “RARRES1 (33505_at) expression change” value (lot 1 Day 7 AI) was −3.3 and the “RDC1 (34288_at) expression change” value (lot 1 Day 7 AI) was −5.3. For the same substance, the “RTP801 (39827_at) expression change” value (lot 1 Day 7 AI) was −2, the “S100A8 (41096_at) expression change” value (lot 1 Day 7 AI) was −6.2 and the “SERPINA3 (33825_at) expression change” value (lot 1 Day 7 AI) was −14.1. For the same substance, the “SERPINB1 (33305_at) expression change” value (lot 1 Day 7 AI) was −2.3, the “SERPINB5 (862_at) expression change” value (lot 1 Day 7 AI) was −2.2 and the “SERPINE1 (672_at) expression change” value (lot 1 Day 7 AI) was −7.8. The “SERPINE1 (38125_at) expression change” value (lot 1 Day 7 AI) was −18.3, the “STK39 (39120_at) expression change” value (lot 1 Day 7 AI) was −2.9 and the “TSPAN-5 (40990_at) expression change” value (lot 1 Day 7 AI) was −3.6. The “VRP (38223_at) expression change” value (lot 1 Day 7 AI) was −2.5, the “c-fos (1916_s_at) expression change” value (lot 1 Day 7 AI) was −2.6 and the “AKR1B10 (37482_at) expression change” value (lot 1 Day 7 IMM) was −6.7. For the same substance, the “AKR1C3 (37399_at) expression change” value (lot 1 Day 7 IMM) was −2.3, the “APM2 (32527_at) expression change” value (lot 1 Day 7 IMM) was −6.2 and the “AREG (34898_at) expression change” value (lot 1 Day 7 IMM) was −5.2. For the same substance, the “BENE (33331_at) expression change” value (lot 1 Day 7 IMM) was −4.7, the “ECM1 (37600_at) expression change” value (lot 1 Day 7 IMM) was −18.4 and the “FABP5 (39799_at) expression change” value (lot 1 Day 7 IMM) was −3.7. The “GPNMB (38379_at) expression change” value (lot 1 Day 7 IMM) was 4.9, the “IGFBP3 (1586_at) expression change” value (lot 1 Day 7 IMM) was −3.1 and the “IGFBP3 (37319_at) expression change” value (lot 1 Day 7 IMM) was −3.1. The “IGFBP6 (1736_at) expression change” value (lot 1 Day 7 IMM) was −5.4, the “MMP9 (31859_at) expression change” value (lot 1 Day 7 IMM) was −16 and the “NDRG1 (36933_at) expression change” value (lot 1 Day 7 IMM) was −2.4. The “NOTCH3 (38750_at) expression change” value (lot 1 Day 7 IMM) was −2.7, the “PFTK1 (36502_at) expression change” value (lot 1 Day 7 IMM) was −3.2 and the “PTK2B (33804_at) expression change” value (lot 1 Day 7 IMM) was −4.1. The “RARRES1 (1042_at) expression change” value (lot 1 Day 7 IMM) was −3.5, the “RARRES1 (33505_at) expression change” value (lot 1 Day 7 IMM) was −2.7 and the “RDC1 (34288_at) expression change” value (lot 1 Day 7 IMM) was −2.2. The “SEC14L2 (32817_at) expression change” value (lot 1 Day 7 IMM) was −2.9, the “SERPINA3 (33825_at) expression change” value (lot 1 Day 7 IMM) was −5.9 and the “SERPINB1 (33305_at) expression change” value (lot 1 Day 7 IMM) was −2.1. The “SERPINB5 (862_at) expression change” value (lot 1 Day 7 IMM) was −2.5, the “SERPINE1 (672_at) expression change” value (lot 1 Day 7 IMM) was −31.3 and the “SERPINE1 (38125_at) expression change” value (lot 1 Day 7 IMM) was −20.1. For the same substance, the “STK39 (39120_at) expression change” value (lot 1 Day 7 IMM) was −2, the “TSPAN-5 (40990_at) expression change” value (lot 1 Day 7 IMM) was −2.8 and the “c-fos (1915_s_at) expression change” value (lot 1 Day 7 IMM) was −4.3. For the same substance, the “c-fos (1916_s_at) expression change” value (lot 1 Day 7 IMM) was −4.7, the “AKR1B10 (37482_at) expression change” value (lot 2 Day 3 AI) was −7.1 and the “AKR1C3 (37399_at) expression change” value (lot 2 Day 3 AI) was −2.6. The “ANXA10 (32349_at) expression change” value (lot 2 Day 3 AI) was −7.5, the “APM2 (32527_at) expression change” value (lot 2 Day 3 AI) was −2.7 and the “AREG (34898_at) expression change” value (lot 2 Day 3 AI) was −14.6. The “BCAS1 (37821_at) expression change” value (lot 2 Day 3 AI) was −4.6, the “BDKRB2 (39310_at) expression change” value (lot 2 Day 3 AI) was −2.4 and the “BENE (33331_at) expression change” value (lot 2 Day 3 AI) was −4.8. For the same substance, the “CRA (1230_g_at) expression change” value (lot 2 Day 3 AI) was −3.4, the “CTSL2 (40717_at) expression change” value (lot 2 Day 3 AI) was −3.2 and the “DUSP1 (1005_at) expression change” value (lot 2 Day 3 AI) was −4.3. The “EPHA1 (1108_s_at) expression change” value (lot 2 Day 3 AI) was −2.8, the “FABP5 (39799_at) expression change” value (lot 2 Day 3 AI) was −3 and the “GPNMB (38379_at) expression change” value (lot 2 Day 3 AI) was −2.2. The “IGFBP3 (1586_at) expression change” value (lot 2 Day 3 AI) was −2.9 and the “IGFBP3 (37319_at) expression change” value (lot 2 Day 3 AI) was −3.

Source: patent US20050208496A1, “Methods of testing for bronchial asthma or chronic obstructive pulmonary disease” (Genox Research, Inc., priority 2002, published 2005)
